# Experimental data: patent publication US20110123617A1, “CLIOQUINOL FOR THE TREATMENT OF HEMATOLOGICAL MALIGNANCIES” (priority 2007, published 2011)
# System: cyclin D2 promoter
# Test: High throughput screen for inhibitors of cyclin D2 transactivation (luciferase assay)
# Assay type: cell-based, mouse
# Conditions: NIH 3T3 cells over-expressing c-maf, ~5 μM, sixteen hours
# Description: The promoter of cyclin D2 (−894 to −4), containing c-maf responsive element sequence (MARE), was cloned from HeLa cell genomic DNA and subcloned into the pGL2 luciferase reporter vector (Promega, Madison, Wis.). This construct was co-transfected with pcDNA3.1 containing a neomycin resistance gene into NIH3T3 wild type cells and NIH3T3 cells stably over-expressing c-maf-IRES-GFP. Cells stably expressing c-maf, GFP, and luciferase were selected for further application. NIH3T3 cells stably expressing c-maf and the cyclin D2 promoter driving luciferase (13,000 cells per well) were plated in 96-well plates by the Biomek FX liquid handler (Beckman, Fullerton, Calif.). The same workstation was used for plate formatting and reagent distribution. […] After incubation, cyclin D2 transactivation was assessed by the luciferase assay and viability was assessed by the MTS assay. Luciferase activity was assessed according to the manufacturer's instructions (Promega, Madison, Wis.). […] After 10 min incubation, an equal volume of Bright-Glo Luciferase substrate (Promega) was added and the luminescence signal was detected with a 96-well Luminoskan luminescence plate reader (Thermo Labsystem, Waltham, Mass.) with a 5 second integration. […] Sixteen hours after the addition of the compounds, luciferase expression was measured as a marker of cyclin D2 transactivation. […]
smiles,measurement,value
"Oc1c(I)cc(Cl)c2cccnc12 [clioquinol, 5-chloro-7-iodo-8-hydroxyquinoline]",cyclin D2 transactivation (luciferase expression),c-maf independent inhibitors of the cyclin D2 promoter
